{
  "source": "patent EP4085921A1",
  "about": "(priority 2021, dated 2022)",
  "key": {"[1]": {"details": "as a function of the treatment time interval; Fig. 18"}},
  "data": [
    {"smiles": "CC[C@H](C)[C@H](NC(=O)[C@H](Cc1ccc(O)cc1)NC(=O)[C@@H](NC(=O)[C@H](CCCNC(=N)N)NC(=O)[C@@H](N)CC(=O)O)C(C)C)C(=O)N[C@@H](Cc1c[nH]cn1)C(=O)N1CCC[C@H]1C(=O)O", "note": "[Angiotensin-(1-7), Asp-Arg-Val-Tyr-Ile-His-Pro]", "values": [
      {"measurement": "side-effects in the clinical trial", "setting": "5 to 25 mcg/kg/24h range as stated", "result": "very safe without severe Ang-(1-7)-related side-effects"},
      {"measurement": "hypotension as side-effect", "setting": "Ang-(1-7) administration in the defined concentration range", "result": "not a side-effect"},
      {"measurement": "averaged blood pressure (SBP, MAP, DBP)", "setting": "at 11 am and 11 pm as a function of ICU days with infusion, Fig. 10, 11", "result": "not significantly influenced"},
      {"measurement": "averaged heart rate", "setting": "at 11 am and 11 pm as a function of ICU days with infusion, Fig. 14, 15", "result": "not influences"},
      {"measurement": "average temperatures", "setting": "at 11 am during infusion, Fig. 16", "result": "not significantly influenced"},
      {"measurement": "averaged Angiotensin-(1-7) levels", "setting": "[1]", "result": "does not result in increased Ang-(1-7) levels"}
    ]}
  ]
}
